Assay [1] has as its target T1, NAD-dependent protein deacetylase sirtuin-1 (Homo sapiens) (UniProt Q96EB6).
T1 sequence (whole entry): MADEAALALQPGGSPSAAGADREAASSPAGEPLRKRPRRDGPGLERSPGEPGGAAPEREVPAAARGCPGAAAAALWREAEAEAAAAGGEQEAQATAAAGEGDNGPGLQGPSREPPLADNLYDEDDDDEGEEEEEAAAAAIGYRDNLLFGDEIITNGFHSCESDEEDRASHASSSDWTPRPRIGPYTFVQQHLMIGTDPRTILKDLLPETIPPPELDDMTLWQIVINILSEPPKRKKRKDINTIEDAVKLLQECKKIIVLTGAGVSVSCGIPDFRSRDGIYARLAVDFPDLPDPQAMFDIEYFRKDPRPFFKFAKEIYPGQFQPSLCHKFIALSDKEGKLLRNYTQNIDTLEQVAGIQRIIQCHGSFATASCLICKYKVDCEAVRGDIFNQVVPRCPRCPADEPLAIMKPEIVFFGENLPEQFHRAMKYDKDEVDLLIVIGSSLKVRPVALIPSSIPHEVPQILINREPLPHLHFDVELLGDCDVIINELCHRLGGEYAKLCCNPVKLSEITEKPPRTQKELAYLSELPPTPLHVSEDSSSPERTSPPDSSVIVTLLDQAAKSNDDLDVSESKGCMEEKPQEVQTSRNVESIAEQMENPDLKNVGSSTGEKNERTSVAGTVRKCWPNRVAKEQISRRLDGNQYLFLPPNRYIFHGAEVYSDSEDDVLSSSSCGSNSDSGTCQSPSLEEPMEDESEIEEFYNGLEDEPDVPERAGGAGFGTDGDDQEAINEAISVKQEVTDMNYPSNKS
The assay is described as follows: Inhibition of human recombinant SIRT1 using fluor de Lys as substrate at 60 uM after 1 hr by fluorimeter analysis.

Assay [2] deals with T2, NAD-dependent protein deacetylase sirtuin-2 (Homo sapiens) (UniProt Q8IXJ6).
T2 sequence (whole entry): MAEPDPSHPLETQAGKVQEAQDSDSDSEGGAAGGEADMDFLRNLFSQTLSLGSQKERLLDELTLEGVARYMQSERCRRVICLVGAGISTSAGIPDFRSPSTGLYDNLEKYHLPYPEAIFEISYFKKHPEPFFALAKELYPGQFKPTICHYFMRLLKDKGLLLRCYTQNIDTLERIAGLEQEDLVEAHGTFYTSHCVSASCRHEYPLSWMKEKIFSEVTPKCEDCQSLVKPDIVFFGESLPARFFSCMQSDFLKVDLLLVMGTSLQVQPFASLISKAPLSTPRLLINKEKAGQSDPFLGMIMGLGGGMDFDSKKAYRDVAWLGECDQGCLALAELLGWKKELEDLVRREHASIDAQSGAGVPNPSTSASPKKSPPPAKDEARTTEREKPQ
As to the kind of experiment: Inhibition of human recombinant SIRT2 using fluor de Lys as substrate at 60 uM after 1 hr by fluorimeter analysis.

The subject of another assay is H1299. The assay is described as follows: Inhibition of sirtuin in human H1299 cells assessed increase in alpha-tubulin acetylation at 60 uM after 24 hrs by Western blot analysis in presence of trichostatin-A relative to control. The format is cell-based.
In assay [3] the target is T3, NAD-dependent protein deacetylase sirtuin-2 (Homo sapiens, UniProt Q8IXJ6).
T3 sequence (Q8IXJ6 whole entry): T2 sequence (whole entry)
The assay is described as follows: Inhibition of human recombinant SIRT2 using fluor de Lys as substrate after 1 hr by fluorimeter analysis.

Assay [4] addresses T4, NAD-dependent protein deacetylase sirtuin-1 (Homo sapiens, UniProt Q96EB6).
T4 sequence (Q96EB6 whole entry): T1 sequence (whole entry)
As to the kind of experiment: Inhibition of human recombinant SIRT1 using fluor de Lys as substrate after 1 hr by fluorimeter analysis.

Molecules are shown by their SMILES.

As a reminder, the inhibition is the relative decrease from the control value, in per cent. The IC50 is the concentration that gives 50% inhibition.

For `CCCOc1ccc(Cn2c(-c3ccccc3)c(Cc3c(OCc4ccccc4)ccc4ccccc34)c(=O)[nH]c2=S)cc1`, the inhibition in assay [1] is 22.8%; in assay [2], 65.1%.

Take `COc1ccc2ccccc2c1Cc1c(-c2ccccc2)n(C)c(=S)[nH]c1=O`: the inhibition was found to be 36.2% in assay [1] and 37.7% in assay [2].

For `O=c1[nH]c(=S)[nH]c(-c2ccccc2)c1Cc1c(O)ccc2ccccc12`, the fold change (FC) in the assay with H1299 came to 1.3.

As for `CCOc1ccc(Cn2c(-c3ccccc3)c(Cc3ccccc3)c(=O)[nH]c2=S)cc1`, the IC50 in assay [3] was found to be 10 µM; in assay [4] it was 68.1 µM. Moreover, the inhibition in assay [1] was 35%; in assay [2], 73.3%.

As for `CCCCn1c(-c2ccc(Cl)cc2)c(Cc2c(OC)ccc3ccccc23)c(=O)[nH]c1=S`, the inhibition in assay [1] was 18.4%; in assay [2] it was 49.4%.

In the case of `O=c1cc(-c2ccccc2)n(Cc2ccccc2)c(=S)[nH]1`, the inhibition was 1.8% in assay [1] and 27% in assay [2].

Regarding `O=c1[nH]c(=S)n(Cc2ccccc2)c(-c2ccccc2)c1Cc1c(OCc2ccccc2)ccc2ccccc12`, the inhibition in assay [1] worked out at 25.4%; in assay [2], 48.4%.

`CCOc1ccc(Cn2c(-c3ccccc3)c(Cc3c(O)ccc4ccccc34)c(=O)[nH]c2=S)cc1`: the IC50 was 4 µM in assay [3] and over 120 µM in assay [4]. For the same compound, the fold change (FC) with H1299 came out at 1.7. Further, the figures for the inhibition in assay [1] and in assay [2] were 13.4% and 88.9%, respectively.

In the case of `CCCCOc1ccc(Cn2c(-c3ccccc3)c(Cc3ccccc3)c(=O)[nH]c2=S)cc1`, the inhibition in assay [1] amounted to 8.5%; in assay [2] it was 63.3%.

With `COc1ccc(Cn2c(-c3ccccc3)c(Cc3c(OC)ccc4ccccc34)c(=O)[nH]c2=S)cc1`, the inhibition was 8.8% in assay [1] and 66.1% in assay [2].

In the case of `COc1ccc(Cn2c(-c3ccccc3)c(Cc3ccccc3)c(=O)[nH]c2=S)cc1`, the values for the inhibition in assay [1] and in assay [2] were 32.2% and 67%, respectively.

Take `COc1ccc(Cn2c(-c3ccccc3)c(Cc3c(OCc4ccccc4)ccc4ccccc34)c(=O)[nH]c2=S)cc1`: the figures for the inhibition in assay [1] and in assay [2] were 29.8% and 56.9%, respectively.

As to `COc1ccc(Cn2c(-c3ccccc3)c(Cc3c(O)ccc4ccccc34)c(=O)[nH]c2=S)cc1`, the IC50 worked out at 12 µM in assay [3] and 58.2 µM in assay [4]. Also, in assay [2], the inhibition stood at 73.4%.

As for `O=c1[nH]c(=S)n(Cc2ccccc2)c(-c2ccccc2)c1Cc1ccccc1`, the inhibition is 23% in assay [1] and 45.1% in assay [2].

As to `CCCCOc1ccc(Cn2c(-c3ccccc3)c(Cc3c(OC)ccc4ccccc34)c(=O)[nH]c2=S)cc1`, the inhibition in assay [1] was found to be 32.7%; in assay [2] it was 66.1%.

In the case of `CCCOc1ccc(Cn2c(-c3ccccc3)c(Cc3c(O)ccc4ccccc34)c(=O)[nH]c2=S)cc1`, the half-maximal inhibitory concentration (IC50) in assay [3] is 6 µM; in assay [4], over 120 µM. Also, the inhibition came to 15.6% in assay [1] and 85.4% in assay [2].

As for `CCOc1ccc(Cn2c(-c3ccccc3)c(Cc3c(OC)ccc4ccccc34)c(=O)[nH]c2=S)cc1`, the half-inhibitory concentration (IC50) in assay [3] is 16 µM; in assay [4], over 120 µM. Besides, the figures for the inhibition in assay [1] and in assay [2] were 19.3% and 72.2%, respectively.

With `O=c1[nH]c(=S)n(Cc2ccccc2)c(-c2ccccc2)c1Cc1c(O)ccc2ccccc12`, the results for the inhibition in assay [1] and in assay [2] were 10.8% and 62%, respectively.

For the compound `CCOc1ccc(Cn2c(-c3ccccc3)c(Cc3c(OCc4ccccc4)ccc4ccccc34)c(=O)[nH]c2=S)cc1`, the inhibition is 36.6% in assay [1] and 67.2% in assay [2].

On to `CCCOc1ccc(Cn2c(-c3ccccc3)c(Cc3c(OC)ccc4ccccc34)c(=O)[nH]c2=S)cc1`, for which the IC50 in assay [3] came to 11 µM; in assay [4] it was 61.9 µM. In addition, the inhibition in assay [1] was 38%; in assay [2], 71.8%.

With `CCCCn1c(-c2ccccc2C)c(Cc2c(OC)ccc3ccccc23)c(=O)[nH]c1=S`, the results for the inhibition in assay [1] and in assay [2] were 11.5% and 37.3%, respectively.

Consider `COc1ccc2ccccc2c1Cc1c(-c2ccccc2)n(Cc2ccccc2)c(=S)[nH]c1=O`, for which, in assay [2], the inhibition is 37.7%.

Values taken from ChEMBL document CHEMBL3217484, “N1-Benzyl substituted cambinol analogues as isozyme selective inhibitors of the sirtuin family of protein deacetylases” (Medchemcomm, 2011).
